Data taken from patent US10179780B2, “Azole benzene derivative and crystalline form thereof” (TEIJIN PHARMA LIMITED, priority 2014, dated 2019).

How the values were obtained:
[1] = Solubility into JP2 solution (pH 6.8); assay type: physicochemical
Procedure: The solubility of the compound (II) in JP2 solution (pH 6.8) was confirmed. A solution was prepared by mildly pulverizing the crystals A of the compound (II) in a mortar, and adding approximately 4 mg of the pulverized crystals to […] of JP2 solution while stirring at room temperature. The absorbance (At) of each solution at 280 nm was successively measured immediately after the addition of the crystals using an ultraviolet-visible absorbance measurement method and the solubility at each measurement time was determined by the following expression using the absorbance (As) of a standard solution at 280 mu determined in advance as an index. The measurement was continued until 120 minutes. Solubility=At/As×Cs (where Cs represents the concentration of a standard solution) • Measurement apparatus: μDISS Profiler manufactured by Pion Inc. • Stirring rate: 700 rpm • UV measurement wavelength: 280 nm • Measurement interval: Start of measurement to 1 minute: 3 seconds • 1 to 8 minutes: 20 seconds • 8 to 120 minutes: 2 minutes

[2] = system: level of uric acid in the blood; assay: Hypouricemic effect (normal rats), 2 hours after oral administration; settings: 2 hours after administration
Procedure: A test compound suspended in a 0.5% methylcellulose solution was administered to 8 to 9 week-old Sprague-Dawley male rats (Japan Charles River Co.) by oral gavage administration using a feeding needle. After the blood was collected from the tail vein at 2 hours after administration, the plasma was separated. The level of uric acid in the blood sample was measured by uricase method using an absorption spectrometer as well as a uric acid determination kit (L type Wako UA F: Wako Pure Chemical Industries, Ltd.). The percentage of hypouricemic effect was determined by the following expression: Percentage of hypouricemic effect (%)=(Level of uric acid of the control animal−Level of uric acid of the test compound-administered animal)×100/Level of uric acid of the control animal.

[3] = system: level of uric acid in the blood; assay: Prolonged hypouricemic effect (normal rats), 24 hours after oral administration; assay type: in vivo, Sprague-Dawley male rats; settings: 24 hours after administration
Procedure: The crystal form A of the compound (II) was administered to Sprague-Dawley male rats in the similar manner as Example 5.
After the blood was collected from the tail vein 24 hours after administration, the plasma was separated. The level of uric acid in the blood was measured by an uricase method using an absorption spectrometer and a uric acid determination kit (L type Wako UA F: Wako Pure Chemical Industries, Ltd.). The percentage of hypouricemic effect was determined by the following expression: Percentage of hypouricemic effect=(Level of uric acid of the control animal−Level of uric acid of the test compound-administered animal)×100/Level of uric acid of the control animal.

[4] = system: level of uric acid in the plasma; assay: Hypouricemic effect (oxonic acid-induced hyperuricemic beagle dogs); assay type: in vivo; settings: hyperuricemic beagle dog, oral, 10 mg/kg, 8 hours after administration
Procedure: The hypouricemic effect was confirmed for the compounds (I) in oxonic acid-induced hyperuricmic beagle dog. […] Potassium oxonate (50 mg/kg) was subcutaneously administrated before and 4 hours after compound administration. After the blood was collected from the cephalic vein at 8 hours after administration, the plasma was separated. The level of uric acid in the plasma sample was measured by LC-MS/MS method and the percentage of hypouricemic effect was determined by the following expression: Percentage of hypouricemic effect (%)=(Level of uric acid of the control animal−Level of uric acid of the test compound-administered animal)×100/Level of uric acid of the control animal.

SMILES | Precipitation / maintenance of dissolved state ([1]; JP2 solution pH 6.8, up to 120 minutes after the addition) | Time until total amount was dissolved ([1]; approximately 4 mg of pulverized crystals in JP2 solution pH 6.8, 700 rpm) | solubility at 120 minutes ([1]; aqueous buffer, thermodynamic from solid, JP2 solution pH 6.8, room temperature, at 120 minutes after the addition) | solubility at 30 seconds ([1]; aqueous buffer, thermodynamic from solid, JP2 solution pH 6.8, room temperature, total amount dissolved within 30 seconds after the addition) | Percentage of hypouricemic effect ([2]; 1 mg/kg) | Percentage of hypouricemic effect ([2]; 10 mg/kg) | Percentage of hypouricemic effect ([3]; 3 mg/kg) | Percentage of hypouricemic effect ([3]; 10 mg/kg) | hypouricemic effect [4]
Cc1nc(-c2ccc(OCC(C)C)c(-n3cnnn3)c2)sc1C(=O)[O-].[Na+] [compound (II), sodium 4-methyl-2-[4-(2-methylpropoxy)-3-(1H-1,2,3,4-tetrazol-1-yl)phenyl]-1,3-thiazole-5-carboxylate] | no precipitation was observed | ≤ 30 s | 184 µg/mL | 187 µg/mL | ≥ 50% | ≥ 50% | ≥ 40% | ≥ 50% | 
Cc1nc(-c2ccc(OCC(C)C)c(-n3cnnn3)c2)sc1C(=O)O [compound (I), 4-methyl-2-[4-(2-methylpropoxy)-3-(1H-1,2,3,4-tetrazol-1-yl)phenyl]-1,3-thiazole-5-carboxylic acid] |  |  |  |  | ≥ 50% | ≥ 50% | ≥ 40% | ≥ 50% | showed a hypouricemic effect
